{"source": "patent US20240325400A1", "about": "“Composition Comprising Skin-Specific T Cell Inhibitor as Active Ingredient for Prevention or Treatment of Atopic Dermatitis” (INDUSTRY-ACADEMIC COOPERATION FOUNDATION, YONSEI UNIVERSITY, priority 2021, published 2024)", "key": {"[1]": {"test_system": "cells isolated from normal skin tissue", "test": "Toxicity assay using CCK-8 reagent (cell viability)", "format": "cell-based", "details": "for cell viability: cells from normal skin tissue, overnight, CCK-8", "procedure": "Thereafter, 10 μL of Cell Counting Kit-8 reagent (Dojindo Lot. PR863) was added to each well of the 96-well plate, and after 2 hours, the safety and toxicity of the drug to the normal skin tissue were evaluated by measuring the absorbance at […]."}, "[2]": {"test_system": "serum total IgE", "test": "Serum total IgE by ELISA in atopic dermatitis mouse model", "format": "in vivo", "procedure": "(§1) Then, in order to check changes in skin-specific T cells in each animal, single suspensions were prepared using the spleen, skin, and lymph nodes, and T-cells were stained using anti-CD3, anti-CD4, anti-CD8, and anti-CD45 antibodies. Flow cytometry was performed on skin-specific T cells using anti-CD69 and anti-CD103 antibodies, thereby observing the changes in number and distribution of skin-specific T cells by the application of the drug.\n(§2) Blood was collected from the mouse heart and then centrifuged at 2,500 rpm for 15 minutes, and the obtained serum was used in the experiment. Then, total IgE was measured using the ELISA MAX™ Delux Set (BioLegend, San Diego, CA, USA) kit. Dermatophagoides farinae (DF)-specific IgE was measured by ELISA using a slight modification of the previously reported method. Briefly, 100 μL of 20 μg/mL DfE in 50 mmol/L carbonate buffer (pH 9.6, Sigma, St. Louis, MO, USA) per well was plated in a 96-well microtiter plate (Corning Inc., Corning)., NY, USA) and incubated overnight at 4° C. Each well was blocked with 3% skim milk in PBS (PBST) containing 0.05% Tween 20 for 1 hour at 37° C. After washing three times with PBST, each well was incubated with a serum sample (diluted to 1:20 [V/V] in 1% BSA) overnight at 4° C. […] The absorbance was measured at 450 nm with a microplate reader (TECAN, Salzburg, Austria)."}, "[3]": {"test_system": "Dermatophagoides farinae (DF)-specific IgE", "test": "Serum total DF-specific IgE by ELISA in atopic dermatitis mouse model", "format": "in vivo", "procedure": "as §1\nBlood was collected from the mouse heart, and then serum total DF-specific IgE (ng/mL) (A450) was measured in a 96-well plate (Corning Inc., Corning, NY, USA) using the ELISA MAX™ Delux Set (BioLegend, San Diego, CA, USA) kit.\nas §2, with “C.” for “C. Each well was blocked with 3% skim milk in PBS (PBST) containing 0.05% Tween 20 for 1 hour at 37° C. After washing three times with PBST, each well was incubated with a serum sample (diluted to 1:20 [V/V] in 1% BSA) overnight at 4° C.”"}, "[4]": {"test_system": "NC/Nga mice with induced atopic dermatitis", "test": "H&E staining of skin of NC/Nga mice (eosinophil count, epidermal thickness)", "format": "in vivo, mouse", "procedure": "as §1\nIn atopic dermatitis, the eosinophil count is observed to be characteristically high, making it a representative biological indicator that can explain the immunological mechanism of atopic dermatitis. Based on this fact, hematoxylin and eosin (H&E) staining in NC/Nga mice was performed. […] In addition, when atopic dermatitis occurs, the skin thickens due to an excessive inflammatory response."}, "[5]": {"test_system": "T cells in skin-draining lymph nodes", "test": "FACS of T cell fractions in skin-draining lymph nodes of atopic dermatitis mouse model", "format": "in vivo", "procedure": "as §1"}, "[6]": {"test_system": "T cells in the spleen", "test": "FACS of T cell fractions in spleen of atopic dermatitis mouse model", "format": "in vivo", "procedure": "as §1"}, "[7]": {"test_system": "skin-specific T cells", "test": "FACS of T cell fractions in skin of atopic dermatitis mouse model", "format": "in vivo", "procedure": "as §1"}, "[8]": {"test_system": "skin-specific T cells", "test": "FACS of skin-specific T cells in human skin with atopic dermatitis lesions", "format": "cell-based", "details": "skin immune cells and skin lesions of atopic dermatitis patients, 50 μM and 100 μM, FIG. 13", "procedure": "To verify the effect of the candidate drug on skin-specific T cells in human skin tissue, a single suspension was prepared using the skin from an atopic dermatitis patient. T cells were stained using anti-CD3, anti-CD4, anti-CD8 and anti-CD45 antibodies, and flow cytometry was performed on skin-specific T cells using anti-CD69 and anti-CD103 antibodies, which are skin TRM markers, thereby observing the changes in number and distribution of skin-specific T cells by the application of the drug."}, "[9]": {"details": "100 μM, compared to 0.1% dexamethasone"}}}
{"substance": "idelalisib", "values": [{"measurement": "cell viability", "setting": "[1]; 50 μM", "result": "≥ 90", "unit": "%"}, {"measurement": "cell viability", "setting": "[1]; 100 μM", "result": "≥ 90", "unit": "%"}, {"measurement": "toxicity in normal skin tissue", "setting": "[1]; CCK-8, FIG. 4", "result": "no significant toxicity"}, {"measurement": "serum total IgE level", "setting": "[2]; 50 μM and 100 μM, ELISA, FIG. 7", "result": "decreased the total IgE level in a dose-dependent manner"}, {"measurement": "decrease in serum total IgE level compared to positive control", "setting": "[2]; [9]", "result": "significantly greater"}, {"measurement": "total DF-specific IgE level", "setting": "[3]; 50 μM and 100 μM, ELISA, FIG. 8", "result": "reduced the level of total DF-specific IgE in a dose-dependent manner"}, {"measurement": "total DF-specific IgE level compared to positive control", "setting": "[3]; [9]", "result": "significantly decreased even compared to that in the 0.1% dexamethasone group"}, {"measurement": "epidermal thickness", "setting": "[4]; FIG. 9B", "result": "decreased as the concentration of idelalisib increased"}, {"measurement": "eosinophil count", "setting": "[4]; FIG. 9C", "result": "decreased depending on the idelalisib concentration"}, {"measurement": "proportion of CD3+ T cells in skin-draining lymph nodes", "setting": "[5]; 100 μM, FIG. 10A", "result": "lowest proportion of CD3+ T cells"}, {"measurement": "fraction of CD3+ CD4+ CD103+ T cells in skin-draining lymph nodes", "setting": "[5]; 100 μM, FIG. 10B", "result": "statistically significantly lowest"}, {"measurement": "fraction of T cells expressing CD69 among CD3+ CD4+ T cells in skin-draining lymph nodes", "setting": "[5]; FIG. 10B", "result": "tended to decrease"}, {"measurement": "CD69+ T cells and CD103+ T cells in the spleen", "setting": "[6]; FIG. 11", "result": "decreased statistically significantly"}, {"measurement": "proportion of CD3+ and CD4+ T cells in the spleen", "setting": "[6]; FIG. 11", "result": "decreased in a dose-dependent manner"}, {"measurement": "CD69+ T cells and CD103+ T cells compared to positive control", "setting": "[6]; spleen, compared to 0.1% dexamethasone", "result": "significantly decreased in the idelalisib-treated group compared to the 0.1% dexamethasone group"}, {"measurement": "proportions of CD3+ and CD4+ skin-specific T cells in the skin", "setting": "[7]; 50 μM and 100 μM, FIG. 12", "result": "significantly decreased in both the 50 μM and 100 μM idelalisib groups in a dose-dependent manner"}, {"measurement": "CD69+ T cells and CD103+ T cells in the skin tissues", "setting": "[7]; FIG. 12", "result": "statistically significantly decreased"}, {"measurement": "proportions of skin-specific T cells compared to positive control", "setting": "[7]; skin, compared to 0.1% dexamethasone", "result": "significantly decreased even compared to that in the 0.1% dexamethasone-treated group"}, {"measurement": "proportion of skin-specific T cells", "setting": "[8]", "result": "significantly decreased in both the 50 μM and 100 μM idelalisib groups in a dose-dependent manner"}]}
